Experimental data taken from patent US20250326748A1, “COMPOUNDS AND METHODS FOR MODULATING SPLICING” (REMIX THERAPEUTICS INC., priority 2022, published 2025).
Where a name gives a salt, the structure may show the parent alone.

Assays:
Assay type in all cases: cell-based, human
SMN2 mRNA = experiment: Splicing RT-qPCR panel, SMN2 canonical junction (CJ) mRNA; details: Homo sapiens, read-out: SMN2 CJ (decrease in CJ mRNA levels, IC50)
How it was run: (§1)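 A673 cells (DMEM, 10% FBS) or K562 cells (IMDM, 10% FBS) treated 24 h at 37 °C with an 11-point 3-fold dilution, top 10 uM, DMSO ≤0.25%. Canonical-junction mRNA quantified in lysates by RT-qPCR, normalised to GAPDH, GUSB or PPIA and to DMSO (2^−ΔΔCt), then converted to % response.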

Target C mRNA = experiment: Splicing RT-qPCR panel, Target C canonical junction (CJ) mRNA; details: Homo sapiens, read-out: Target C CJ (decrease in CJ mRNA levels, IC50)
How it was run: as §1

Target C = experiment: HiBiT protein abundance assay, Target C (K562 HiBiT knock-in); details: HiBiT knock-in cells, 24 hours
Description: Cells were maintained in IMDM with 10% FBS. Before the assay, cells were diluted with […] growth media (IMDM+1% FBS media) and were seeded in a 384-well plate at a density of 10000 cells/well (for each cell line listed in Table 6). Each compound was prepared as a 10-point 3-old serial dilution in DMSO with the top dose at a final concentration of 10 μM in the well. Unmodified K562 cells were added at the previously specified density with DMSO to serve as an assay baseline and positive control (PC) and DMSO only with the respective modified cell lines was added to the negative control (NC) columns. Final DMSO concentration was kept at or below 0.25%. Treated cell plates were placed in an incubator at 37° C. with 5% CO2 for 24 hours. After 24 hours, 25 μL of Complete HiBit Lytic reagent was added to each well at room temperature (e.g. one plate requiring 10 ml Lytic Buffer, 100 μL LgBiT Protein, 200 μL Lytic Substrate), shaken for 5 minutes at 600 RPM, then left to sit for 10 minutes for signal to stabilize before reading on a Spark Cyto plate reader (Tecan) with a 500 ms measurement time.
To determine compound effects on protein abundance of each target in Table 6, the percent response for each respective cell line was calculated at each compound concentration as follows:
For the normalized response at each concentration, a four-parameter logistical regression was fit to the data and the response was interpolated at the 50% value to determine a concentration for protein abundance at 50% (IC50) the untreated control.

SMILES | IC50 (SMN2 mRNA) | IC50 (Target C mRNA) | IC50 (Target C)
Cn1cc2cc(-c3ccc4cc(NC5CCNCC5)cnc4n3)c(O)c(F)c2n1 [Compound 285] | < 0.1 µM | 1 to 10 µM | 1 to 10 µM
CCN[C@@H]1CCN(c2cnc3nc(-c4cc5cn(C)nc5cc4O)cc(Cl)c3c2)C1 [Compound 317] | < 0.1 µM | < 0.1 µM | < 0.1 µM
C[C@@H]1CN(c2cnc3nc(-c4ccc5nn(C)cc5c4)cc(Cl)c3c2)C[C@H](C)N1 [Compound 320, 4-chloro-6-[(3R,5S)-3,5-dimethylpiperazin-1-yl]-2-(2-methylindazol-5-yl)-1,8-naphthyridine] | < 0.1 µM | > 10 µM | > 10 µM
Cn1cc2cc(-c3ccc4cc(N5CC[C@@H](NCC6CC6)C5)cnc4n3)c(O)cc2n1 [Compound 313] | < 0.1 µM | 0.1 to 1 µM | 0.1 to 1 µM
CCN[C@H]1CCN(c2cnc3nc(-c4cc5cn(C)nc5cc4O)ccc3c2)C1 [Compound 311, 5-{6-[(3S)-3-(ethylamino)pyrrolidin-1-yl]-1,8-naphthyridin-2-yl}-2-methylindazol-6-ol hydrochloride] | < 0.1 µM | 1 to 10 µM | 0.1 to 1 µM
C[C@@H]1CN(c2cnc3nc(-c4cc5cn(C)nc5cc4O)ccc3c2)C[C@H](C)N1 [Compound 343] | < 0.1 µM | 1 to 10 µM | 1 to 10 µM
CCNC1CCN(c2cnc3nc(-c4cc5cn(C)nc5c(F)c4O)ccc3c2)C1 (stereo not drawn) [Compound 106, 5-{6-[3-(ethylamino)pyrrolidin-1-yl]-1,8-naphthyridin-2-yl}-7-fluoro-2-methylindazol-6-ol] | < 0.1 µM | 0.1 to 1 µM | < 0.1 µM
Cc1c(O)c(-c2ccc3cc(N4CC[C@@H](NCC5CC5)C4)cnc3n2)cc2cn(C)nc12 [Compound 118] | < 0.1 µM | 0.1 to 1 µM | < 0.1 µM
Cn1cc2cc(-c3ccc4cc(N5CCC(NC(C)(C)C)C5)cnc4n3)c(O)cc2n1 (stereo not drawn) [Compound 134, 5-{6-[3-(tert-butylamino)pyrrolidin-1-yl]-1,8-naphthyridin-2-yl}-2-methylindazol-6-ol hydrochloride] | < 0.1 µM | 0.1 to 1 µM | 0.1 to 1 µM
CN[C@H]1CCN(c2cnc3nc(-c4cc5cn(C)nc5c(C)c4O)ncc3c2)C1 [Compound 120] | < 0.1 µM | > 10 µM | 1 to 10 µM
Cc1cn2cc(-c3ccc4cc(N5C[C@@H](C)N[C@@H](C)C5)cnc4n3)cc(F)c2n1 [Compound 350] | 0.1 to 1 µM | > 10 µM | 1 to 10 µM
Cc1cn2cc(-c3cc(Cl)c4cc(N5CCNCC5)cnc4n3)cc(F)c2n1 [Compound 153, 4-chloro-2-{8-fluoro-2-methylimidazo[1,2-a]pyridin-6-yl}-6-(piperazin-1-yl)-1,8-naphthyridine] | < 0.1 µM | 1 to 10 µM | 1 to 10 µM
C[C@@H]1CN(c2cnc3nc(-c4cc(F)c5nn(C)cc5c4)cc(Cl)c3c2)CCN1 [Compound 295, 4-chloro-2-(7-fluoro-2-methylindazol-5-yl)-6-[(3R)-3-methylpiperazin-1-yl]-1,8-naphthyridine] | < 0.1 µM | 1 to 10 µM | 0.1 to 1 µM
Cn1cc2cc(-c3ccc4cc(N5CC[C@H](NCC6CC6)C5)cnc4n3)c(O)cc2n1 [Compound 314] | < 0.1 µM | 1 to 10 µM | 0.1 to 1 µM
C[C@H]1CN(c2cnc3nc(-c4cc(F)c5nn(C)cc5c4)cc(Cl)c3c2)CCN1 [Compound 296] | < 0.1 µM | 1 to 10 µM | 0.1 to 1 µM
CNC1CCN(c2cnc3nc(-c4cc5cn(C)nc5c(C)c4O)cc(Cl)c3c2)C1 (stereo not drawn) [Compound 142, 5-{4-chloro-6-[3-(methylamino)351pyrrolidine-1-yl]-1,8-naphthyridin-2-yl}-2,7-dimethylindazol-6-ol] | < 0.1 µM | 0.1 to 1 µM | 0.1 to 1 µM
C[C@@H]1CN(c2cnc3nc(-c4cc5cn(C)nc5c(F)c4O)cc(Cl)c3c2)C[C@@H](C)N1 [Compound 281] | < 0.1 µM | 0.1 to 1 µM | 0.1 to 1 µM

SMILES | IC50 (SMN2 mRNA) | IC50 (Target C mRNA) | IC50 (Target C)
Cn1cc2cc(-c3ccc4cc(N5CC[C@H](NCC6CC6)C5)cnc4n3)c(O)c(F)c2n1 [Compound 136, 5-{6-[(3S)-3-[(cyclopropylmethyl)amino]326pyrrolidine-1-yl]-1,8-naphthyridin-2-yl}-7-fluoro-2-methylindazol-6-ol] | < 0.1 µM | 1 to 10 µM | 0.1 to 1 µM
CN(c1cnc2nc(-c3cc4cn(C)nc4c(F)c3O)ccc2c1)C1CCNCC1 [Compound 284] | < 0.1 µM | > 10 µM | 1 to 10 µM
CN(C)C1CCN(c2cnc3nc(-c4cc5cn(C)nc5cc4O)ccc3c2)CC1 [Compound 316] | < 0.1 µM | 1 to 10 µM | 1 to 10 µM
C[C@@H]1CN(c2cnc3nc(-c4cc5cn(C)nc5c(F)c4O)cc(C4CC4)c3c2)C[C@H](C)N1 [Compound 305, 5-{4-cyclopropyl-6-[(3R,5S)-3,5-dimethylpiperazin-1-yl]-1,8-naphthyridin-2-yl}-7-fluoro-2-methylindazol-6-ol] | < 0.1 µM | > 10 µM | 1 to 10 µM
CN1CCC[C@H]2CN(c3cnc4nc(-c5cc6cn(C)nc6c(F)c5O)cc(Cl)c4c3)C[C@H]21 [Compound 304] | < 0.1 µM | > 10 µM | > 10 µM
Cc1cc(-c2cc3cn(C)nc3c(C)c2O)nc2ncc(N3CCNCC3)cc12 [Compound 151, 2,7-dimethyl-5-[4-methyl-6-(piperazin-1-yl)-1,8-naphthyridin-2-yl]indazol-6-ol] | < 0.1 µM | 1 to 10 µM | 0.1 to 1 µM
Cc1c(O)c(-c2cc(Cl)c3cc(N4CCNC(C)C4)cnc3n2)cc2cn(C)nc12 (stereo not drawn) [Compound 147] | < 0.1 µM | 1 to 10 µM | 1 to 10 µM
CN[C@H]1CN(c2cnc3nc(-c4cc5cn(C)nc5c(C)c4O)ccc3c2)C[C@@H]1F (single isomer, unassigned) [Compound 131] | < 0.1 µM | 1 to 10 µM | 1 to 10 µM
Cc1c(O)c(-c2ccc3c(Cl)c(N4CCNCC4)cnc3n2)cc2cn(C)nc12 [Compound 278, 5-[5-chloro-6-(piperazin-1-yl)-1,8-naphthyridin-2-yl]-2,7-dimethylindazol-6-ol] | < 0.1 µM | 1 to 10 µM | 1 to 10 µM
Cc1cn2nc(-c3cnc4nc(C5CCNCC5)ccc4c3)cc(C)c2n1 [Compound 115, 6-(2,8-dimethylimidazo[1,2-b]pyridazin-6-yl)-2-(piperidin-4-yl)-1,8-naphthyridine] | 0.1 to 1 µM | > 10 µM | 1 to 10 µM
CNC(=O)c1cc(-c2cc3cn(C)nc3c(C)c2O)nc2ncc(N3CCNCC3)cc12 [Compound 150, 2-(6-hydroxy-2,7-dimethylindazol-5-yl)-N-methyl-6-(piperazin-1-yl)-1,8-naphthyridine-4-carboxamide] | 1 to 10 µM | > 10 µM | > 10 µM
Cc1c(O)c(-c2cc(Cl)c3cc(N(C)[C@H]4CCNC4)cnc3n2)cc2cn(C)nc12 [Compound 294] | < 0.1 µM | 1 to 10 µM | 1 to 10 µM
Cn1cc2cc(-c3cnc4nc(N5CCC(NC(C)(C)C)C5)ccc4c3)c(O)cc2n1 (stereo not drawn) [Compound 133, 5-{7-[3-(tert-butylamino)pyrrolidin-1-yl]-1,8-naphthyridin-3-yl}-2-methylindazol-6-ol] | > 10 µM | > 10 µM | 1 to 10 µM
Cc1c(O)c(-c2cc(Cl)c3cc(NC4CCNC4)cnc3n2)cc2cn(C)nc12 (stereo not drawn) [Compound 146, 5-[4-chloro-6-(359pyrrolidine-3-ylamino)-1,8-naphthyridin-2-yl]-2,7-dimethylindazol-6-ol] | < 0.1 µM | 1 to 10 µM | 0.1 to 1 µM
Cn1cc2cc(-c3cc(Cl)c4cc(N5CCNC6(CC6)C5)cnc4n3)c(O)c(F)c2n1 [Compound 274] | < 0.1 µM | 1 to 10 µM | 0.1 to 1 µM
Cc1cn2nc(-c3ccc4cc(N5C[C@@H](C)N[C@@H](C)C5)cnc4n3)cc(C)c2n1 [Compound 330] | < 0.1 µM | 0.1 to 1 µM | 0.1 to 1 µM
Cn1cc2cc(-c3ccc4cc(N5CC[C@@H](NCC6CC6)C5)cnc4n3)c(O)c(F)c2n1 [Compound 135, 5-{6-[(3R)-3-[(cyclopropylmethyl)amino]330pyrrolidine-1-yl]-1,8-naphthyridin-2-yl}-7-fluoro-2-methylindazol-6-ol] | < 0.1 µM | 0.1 to 1 µM | < 0.1 µM
